Calls of active or inactive are those of the source.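 Rule for the calls: active = fitted curve drops below -35% activity at a concentration within twice the top valid tested dose; inconclusive = no clear call, values can overlap the other calls; inactive = signal rising instead of falling, among other cases.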
Assays:
[1] = system: HepG2 viability, ATP luminescence (CellTiter-Glo), 72 h; experiment: HepG2 hepatoma cell cytotoxicity, dose response, cytotoxicity control, CellTiter-Glo luminescence, cherry-pick, set 3 (AID 720589)
[2] = as above; settings: HepG2 viability, ATP luminescence (CellTiter-Glo), 72 h, hits give low values, 0% = untreated, negative = ATP loss

## Nc1ccc(-c2cc3ccccc3c(=O)o2)cc1
[1]
  AC35: 0.05 µM

## CC(=O)OC1CC2(O)C3CCC4CC(O)CCC4(C)C3CCC2(C)C1C1=CC(=O)OC1 (stereo unspecified)
[1]
  AC35: 0.602 µM

## C[C@@H]1CN([C@@H](C)CO)C(=O)c2cc(NS(=O)(=O)c3ccccc3)ccc2O[C@@H]1CN(C)Cc1ccc(C(=O)Nc2ccccc2N)cc1
[1]
  AC35: 7.52 µM

## C(=N\Nc1nc2ccccc2[nH]1)/c1ccccn1
[1]
  AC35: 7.93 µM

## O=C(NC1CCCC1)N1CCCCN2[C@@H](CO)[C@@H](c3ccc(/C=C/c4ccccc4)cc3)[C@@H]2C1
[1]
  AC35: 9.99 µM

## C=C1C(=O)O[C@@H]2[C@H]1[C@@H](OC(=O)/C(C)=C/C)C/C(C)=C\C(=O)/C=C(\C)[C@@H]2O
[1]
  AC35: 12.5 µM

## CC12CCC3C(CCC4(O)CC(O)CCC34C=NO)C1(O)CCC2C1=COC(=O)C1 (stereo unspecified)
[1]
  AC35: 0.155 µM

## O=c1[nH]c(=O)n([C@H]2C[C@H](O)[C@@H](CO)O2)cc1C(F)(F)F
[1]
  AC35: 15.6 µM

## CN=c1scc(-c2ccccc2F)n1/N=C/c1ccc[nH]1
[1]
  AC35: 0.638 µM

## C[C@@H]1CN([C@H](C)CO)C(=O)Cc2cc(NC(=O)CCCCCC(=O)Nc3ccccc3N)ccc2O[C@@H]1CN(C)CC1CCCCC1
[1]
  AC35: 1.93 µM

## C[C@@H]1CN([C@H](C)CO)C(=O)c2cccc(N(C)C)c2O[C@@H]1CN(C)Cc1ccc(C(=O)Nc2ccccc2N)cc1
[1]
  AC35: 3.05 µM

## C[C@@H]1CN([C@@H](C)CO)C(=O)Cc2cc(NC(=O)C3CCCCC3)ccc2O[C@H]1CN(C)Cc1ccc(C(=O)Nc2ccccc2N)cc1
[1]
  AC35: 0.83 µM

## Cc1nc(N)nc(N)c1/C=C/C(C)(C)c1ccc(Cl)cc1
[1]
  AC35: < 0.011 µM

## c1ccc(Nc2nnc(-c3ccc4c(c3)OCO4)o2)cc1
[1]
  AC35: 14.3 µM

## Nc1ccc(Cn2ccc3c4c(N)nc(N)nc4ccc32)cc1
[1]
  AC35: 0.137 µM

## O=C1NC(=O)N(Cc2ccc(F)cc2)C(=O)/C1=C\C=C\c1ccco1
[1]
  AC35: 9.05 µM

## CCc1cccc2c(C(=O)CN3C(=O)NC4(CCCCC4)C3=O)c[nH]c12
[1]
  AC35: 8.59 µM

## CCCCCCCCCCCCCCCCn1cc[n+](C)c1
[1]
  AC35: 4.54 µM

## O=C(/C=C/c1cc(Br)ccc1O)c1ccco1
[1]
  AC35: 17.7 µM

## Cc1cc2c(C(C)C)c(O)c(O)c(C=O)c2c(O)c1-c1c(C)cc2c(C(C)C)c(O)c(O)c(C=O)c2c1O
[1]
  AC35: 13.7 µM

## COc1ccc(NC(=O)N2CCCCN3[C@@H](CO)[C@H](c4ccc(C5=CCCCC5)cc4)[C@@H]3C2)cc1
[1]
  AC35: 10.9 µM

## C=C1C(=O)[C@@]23[C@H](O)C[C@@H]4C(C)(C)CC[C@H](O)[C@@]4(C)[C@@H]2CC[C@@H]1[C@H]3O
[1]
  AC35: 15.3 µM

## C[C@]12CCC3C(CCC4=CC(O)CC[C@@]43/C=N/O)C1(O)CCC2C1=CC(=O)OC1 (stereo partly specified)
[1]
  AC35: 1.57 µM

## Nc1nc(N)c2cc(Sc3ccc4ccccc4c3)ccc2n1
[1]
  AC35: 3.74 µM

## COC1C(O)C(C)OC(OC2C(Oc3cccc4c(O)c5c(=O)oc6ccc(C)c7c(=O)oc(c34)c5c67)OC(C)C(O)C2O)C1O (stereo unspecified)
[1]
  AC35: 14.3 µM

## CCc1ccc(/C=C2\SC(=S)N(CCCC(=O)NCCCN3CCOCC3)C2=O)cc1
[1]
  AC35: 10.8 µM

## CNC[C@H](CC1CCCCC1)NC[C@H](CO)NCCc1cccc(C(F)(F)F)c1
[1]
  AC35: 7.57 µM

## CCOc1cc2[nH]c(=S)n(Cc3ccc(C(=O)NCCN(CC)CC)cc3)c(=O)c2cc1OCC
[1]
  AC35: 15.8 µM

## Cc1nc(N)nc(N)c1-c1ccc(Cl)c(Cl)c1
[1]
  AC35: 0.557 µM

## Nc1ccc(Oc2ccccc2-c2ccccc2)cc1
[2]; at 0.3 µM
  max activity: -37% (inactive)

## CCN(CC)c1ccc(C2NC(=O)c3ccccc3N2)cc1 (stereo unspecified)
[2]; at 26 µM
  max activity: -26.4% (inactive)

## CC(C)NC(=O)N(C)C[C@@H]1Oc2cc(C#Cc3ccc(F)cc3)ccc2S(=O)(=O)N([C@H](C)CO)C[C@H]1C
[2]; at 2.85 µM
  max activity: -21.1% (inactive)

## COc1ccc(Nc2oc(COc3ccccc3OC)nc2C#N)cc1
[2]; at 2.85 µM
  max activity: -51% (inactive)

## Cc1ccc2nc(-c3ccccc3)nn2c1
[2]; at 26 µM
  max activity: -45.7% (inactive)

## CN=c1scc(-c2ccccc2F)n1/N=C/c1ccc(O)c(O)c1O
[2]; at 2.85 µM
  max activity: -42.6% (inactive)

## O=C(NC(=O)c1ccccc1)Nc1ccccc1
[2]; at 0.1 µM
  max activity: -38.9% (inactive)

## CC1(C)Oc2cc3oc(-c4cc(O)cc(O)c4)cc3cc2CC1O (stereo unspecified)
[2]; at 0.035 µM
  max activity: -28.3% (inactive)

## C(=C\c1ccc(C2[C@H]3CNC[C@@H]2N3Cc2ccccn2)cc1)/c1ccccc1 (stereo partly specified)
[2]; at 0.011 µM
  max activity: -23.3% (inactive)

## Cc1ccc(NC(=O)CCN2CCCCC2)cc1
[2]; at 26 µM
  max activity: 20.8% (inactive)

## COc1cc2oc3cc(C#Cc4ccc(N)cc4)ccc3c(=O)c2cc1OC
[2]; at 26 µM
  max activity: -39.4% (inactive)

## COc1ccc(S(=O)(=O)N=Nc2c(O)[nH]c3ccccc23)cc1
[2]; at 26 µM
  max activity: -27.4% (inactive)

From PubChem BioAssay AID720589 (Broad Institute, 2013)
